This is an account of results in PubChem BioAssay AID2074 (Sanford-Burnham Center for Chemical Genomics, 2009).

For the experiment, the target named is Dual specificity protein phosphatase 3 (Homo sapiens) (UniProt P51452). Nature of the experiment: VHR phosphatase inhibition, SAR follow up, biochemical fluorescent readout with DiFMUP (AID 2074). The following applies: recombinant VHR phosphatase, DiFMUP fluorescence.
Sequence of Dual specificity protein phosphatase 3 (Homo sapiens) (P51452 whole entry, looked up): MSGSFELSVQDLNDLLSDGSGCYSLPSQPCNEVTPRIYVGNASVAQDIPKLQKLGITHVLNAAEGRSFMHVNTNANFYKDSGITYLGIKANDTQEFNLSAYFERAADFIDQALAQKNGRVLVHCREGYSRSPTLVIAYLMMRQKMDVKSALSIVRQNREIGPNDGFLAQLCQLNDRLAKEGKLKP
`O=C1/C(=C/c2cn(-c3ccccc3)nc2-c2ccc(OCc3ccc(Cl)cc3)cc2)SC(=S)N1CCS(=O)(=O)O`: the IC50 – broadly, the midpoint of a concentration-inhibition curve – is 18 nM.
As for `O=C1/C(=C/c2cn(-c3ccccc3)nc2-c2ccc(Cl)cc2)SC(=S)N1CCS(=O)(=O)O`, the figure is 1800 nM; as for `O=C1/C(=C/c2cn(-c3ccccc3)nc2-c2ccc(OCc3ccccc3Cl)cc2)SC(=S)N1CCS(=O)(=O)O`, 71 nM.
As for `Cc1ccc(-c2nn(-c3ccccc3)cc2/C=C2\SC(=S)N(CCS(=O)(=O)O)C2=O)cc1`, the figure is 3100 nM; as for `COc1ccc(-c2nn(-c3ccccc3)cc2/C=C2\SC(=S)N(CCS(=O)(=O)O)C2=O)cc1`, 1800 nM; as for `O=C1/C(=C/c2cn(-c3ccccc3)nc2-c2ccc(OCc3ccccc3)cc2)SC(=S)N1CCS(=O)(=O)O`, 78 nM.
For the molecule `O=C1/C(=C/c2cn(-c3ccccc3)nc2-c2ccc(S(=O)(=O)N3CCOCC3)cc2)SC(=S)N1CCS(=O)(=O)O`, the half-maximal inhibitory concentration (IC50) was 2400 nM.
